Data: ChEMBL document CHEMBL1201862, “PubChem BioAssay data set” (2004)
Calls of active or inactive are those of the source.

Key:
[1] = NIH-3T3 fibroblast cytotoxicity, dose response, cytotoxicity control, cell-based, fluorescence, Alamar Blue, secondary assay (AID 2327); type: functional;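 also: NIH-3T3 mouse fibroblasts cultured with fluconazole at 8 µg/mL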
[2] = luciferase reporter signal suppression in cells – H4 neuroglioma cells, luminescence, dose response (AID 1990); type: functional, cell-based
[3] = tested on: BJ; assay: BJ-TERT fibroblast viability loss – cell-based, RAS-independent, luminescence, dose response (AID 1933); type: functional; conditions: Homo sapiens
[4] = Luminescence Cell-Based Dose Response HTS to Identify Inhibitors of 5'UTR Stem-Loop Driven Prion Protein mRNA Translation in H4 Neuroglioblastoma Cells. [Related pubchem assays: 1827 (Project Summary), 1813 (Primary HTS)]; type: functional
[5] = alpha-synuclein stem-loop luciferase translation blockers – H4 neuroglioma cells, luminescence, confirmation (AID 1988); type: functional, cell-based
[6] = tested on: BJ; assay: cells; type: functional, cell-based; conditions: Homo sapiens
[7] = fluconazole-exposed Candida albicans growth modulators – fluorescence, retest, confirmation (AID 2467); type: functional, cell-based
[8] = tested on: BJ; assay: BJ-TERT-LT-ST fibroblast viability loss – cell-based, RAS-independent, luminescence, dose response (AID 1935); type: functional; conditions: Homo sapiens;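 also: BJ fibroblasts immortalized with TERT plus LT and ST oncogenes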
[9] = DRD fibroblast viability loss – cell-based, non-viral oncogenic, luminescence, dose response (AID 1934); type: functional; conditions: Homo sapiens
[10] = tested on: INS1; assay: INS-1E survival protection against cytokine death – cell-based, luminescence, retest, dose response (AID 449756); type: functional; conditions: Rattus norvegicus;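 also: cell death triggered by IL-1 beta plus TNF-alpha plus IFN-gamma mixture; protective hits raise ATP signal compared with cytokine alone wells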
[11] = target: T1, RNA-binding protein pos-1 (Caenorhabditis elegans, UniProt G5EF15); assay: disruptors of C. elegans POS-1 RNA interaction – biochemical, fluorescence polarization, dose response (AID 1964);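 also: purified POS-1 fused to maltose binding protein made in E. coli; potency of compounds blocking POS-1 binding to fluorescent RNA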
T1 sequence (G5EF15 whole entry): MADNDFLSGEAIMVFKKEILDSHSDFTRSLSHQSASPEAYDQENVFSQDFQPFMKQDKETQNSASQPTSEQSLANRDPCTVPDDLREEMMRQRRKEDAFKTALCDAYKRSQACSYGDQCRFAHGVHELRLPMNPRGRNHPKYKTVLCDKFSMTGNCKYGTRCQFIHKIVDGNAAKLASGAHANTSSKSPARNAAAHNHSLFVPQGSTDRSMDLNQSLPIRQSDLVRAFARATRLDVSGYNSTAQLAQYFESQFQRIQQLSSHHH

[12] = target: T2, Zinc finger protein mex-5 (Caenorhabditis elegans, UniProt Q9XUB2); assay: potency of MEX-5 RNA-binding blockers – biochemical, C. elegans, fluorescence polarization, dose response (AID 1960)
T2 sequence (Q9XUB2 whole entry): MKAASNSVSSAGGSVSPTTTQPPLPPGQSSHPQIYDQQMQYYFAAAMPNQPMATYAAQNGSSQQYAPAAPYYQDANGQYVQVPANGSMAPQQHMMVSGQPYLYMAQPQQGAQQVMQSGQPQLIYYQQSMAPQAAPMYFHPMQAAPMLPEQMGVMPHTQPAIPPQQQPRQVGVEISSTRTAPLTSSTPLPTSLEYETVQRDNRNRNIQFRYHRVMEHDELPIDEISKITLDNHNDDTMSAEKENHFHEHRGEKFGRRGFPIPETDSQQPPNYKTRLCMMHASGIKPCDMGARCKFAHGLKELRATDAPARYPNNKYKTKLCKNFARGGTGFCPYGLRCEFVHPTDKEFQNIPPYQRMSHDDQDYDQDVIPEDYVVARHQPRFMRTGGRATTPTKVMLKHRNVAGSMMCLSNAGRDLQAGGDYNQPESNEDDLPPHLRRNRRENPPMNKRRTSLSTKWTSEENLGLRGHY

[13] = target: T3, Polyadenylate-binding protein 1 (Homo sapiens, UniProt P11940); assay: MLLE binding blockers, Cy5 peptide tracer – biochemical, fluorescence polarization, Cy5-PAM2 peptide, secondary, miRNA deadenylation inhibitor project, dose response (AID 602260); type: functional; conditions: read-out: IC50_Mean
[14] = target: T3, Polyadenylate-binding protein 1; assay: MLLE domain peptide-binding blockers, IC50 – biochemical, fluorescence polarization, FITC-PAM2 peptide, dose response (AID 602259); type: functional; conditions: read-out: IC50_Mean
[15] = target: T4, Corticotropin-releasing factor receptor 2/Corticotropin-releasing factor-binding protein (Homo sapiens, UniProt P24387+Q13324); assay: activators of CRF receptor 2 with binding protein – uHTS hits, confirmation (AID 602473); type: functional; conditions: read-out: EC50_Mean
T4 sequence (Q13324 whole entry): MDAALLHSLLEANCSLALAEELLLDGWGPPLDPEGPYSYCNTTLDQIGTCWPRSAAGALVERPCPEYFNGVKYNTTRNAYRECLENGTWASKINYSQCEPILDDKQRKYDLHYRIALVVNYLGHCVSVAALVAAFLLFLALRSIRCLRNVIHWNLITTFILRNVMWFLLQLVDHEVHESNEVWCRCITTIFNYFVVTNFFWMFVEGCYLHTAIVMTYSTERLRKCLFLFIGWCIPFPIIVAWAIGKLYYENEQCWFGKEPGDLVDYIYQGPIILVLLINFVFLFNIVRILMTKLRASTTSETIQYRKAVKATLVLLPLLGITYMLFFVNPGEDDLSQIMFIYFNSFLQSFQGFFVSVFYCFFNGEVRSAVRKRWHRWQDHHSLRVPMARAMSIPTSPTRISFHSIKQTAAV
T4 sequence (P24387 whole entry): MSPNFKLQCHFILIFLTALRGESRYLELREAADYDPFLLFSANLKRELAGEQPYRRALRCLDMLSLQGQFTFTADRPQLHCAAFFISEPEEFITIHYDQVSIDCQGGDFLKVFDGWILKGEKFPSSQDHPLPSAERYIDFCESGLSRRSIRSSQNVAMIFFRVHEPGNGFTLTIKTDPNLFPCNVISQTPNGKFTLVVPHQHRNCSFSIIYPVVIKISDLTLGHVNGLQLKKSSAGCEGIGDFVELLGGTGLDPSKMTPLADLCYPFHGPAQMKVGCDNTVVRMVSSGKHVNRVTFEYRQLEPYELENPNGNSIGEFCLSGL

[16] = target: Paired box protein Pax-8 (Homo sapiens, UniProt Q06710); assay: PAX8 transcriptional activity inhibition in RMG-I – RMG-I cells, luciferase, cherry-pick, dose response (AID 687027); type: functional, cell-based;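 also: luciferase reporter driven by Pax8 target thyroperoxidase promoter measured by SteadyGlo luminescence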
[17] = target: T5, Leucine aminopeptidase (Plasmodium falciparum 3D7, UniProt Q8IL11); assay: P. falciparum M17LAP inhibitors, primary screen, biochemical, fluorogenic H-Leu-NHMec substrate, 1536-well (AID 1619); type: functional
T5 sequence (Q8IL11 whole entry): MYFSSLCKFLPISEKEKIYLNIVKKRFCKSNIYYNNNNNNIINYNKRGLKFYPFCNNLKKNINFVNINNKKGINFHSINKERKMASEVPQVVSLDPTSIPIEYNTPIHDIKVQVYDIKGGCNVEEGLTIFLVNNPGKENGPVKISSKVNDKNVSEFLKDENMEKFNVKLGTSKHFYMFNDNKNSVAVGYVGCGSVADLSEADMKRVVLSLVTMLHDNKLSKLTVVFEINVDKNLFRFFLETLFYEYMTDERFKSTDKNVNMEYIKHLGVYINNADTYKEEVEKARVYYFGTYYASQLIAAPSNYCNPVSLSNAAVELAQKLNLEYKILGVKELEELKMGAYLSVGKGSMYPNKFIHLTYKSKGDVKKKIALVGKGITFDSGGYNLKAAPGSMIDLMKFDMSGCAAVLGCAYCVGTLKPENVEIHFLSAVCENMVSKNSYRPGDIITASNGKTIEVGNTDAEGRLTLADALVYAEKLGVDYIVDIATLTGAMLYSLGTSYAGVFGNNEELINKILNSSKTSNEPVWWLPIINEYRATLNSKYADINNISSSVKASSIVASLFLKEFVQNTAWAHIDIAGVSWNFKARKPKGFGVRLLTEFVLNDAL

[18] = target: Cytochrome P450 2D6 (Homo sapiens, UniProt P10635);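 also: CYP2D6 member of a cytochrome P450 panel assay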
[19] = target: Cytochrome P450 2C9 (Homo sapiens, UniProt P11712)
[20] = target: T6, Cytochrome P450 1A2 (Homo sapiens, UniProt P05177);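 also: PubChem cytochrome P450 panel assay, CYP1A2 panel member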
T6 sequence (P05177 whole entry): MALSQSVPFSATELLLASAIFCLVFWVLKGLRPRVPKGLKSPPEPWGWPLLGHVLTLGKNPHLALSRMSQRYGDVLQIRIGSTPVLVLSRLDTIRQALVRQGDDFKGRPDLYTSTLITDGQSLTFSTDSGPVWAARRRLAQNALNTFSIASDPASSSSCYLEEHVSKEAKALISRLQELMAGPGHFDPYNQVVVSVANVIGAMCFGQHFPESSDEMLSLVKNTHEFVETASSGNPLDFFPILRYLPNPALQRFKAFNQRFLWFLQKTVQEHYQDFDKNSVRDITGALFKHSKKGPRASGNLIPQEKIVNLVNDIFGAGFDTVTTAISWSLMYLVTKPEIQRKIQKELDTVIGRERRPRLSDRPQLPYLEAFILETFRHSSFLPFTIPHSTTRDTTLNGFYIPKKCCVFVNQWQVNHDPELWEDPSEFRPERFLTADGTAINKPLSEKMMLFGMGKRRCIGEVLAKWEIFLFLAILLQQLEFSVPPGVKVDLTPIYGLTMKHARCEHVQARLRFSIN

[21] = cells; type: functional, cell-based
[22] = cells; type: functional, cell-based; remark: listed apart in the source
[23] = target: Cytochrome P450 2C19 (Homo sapiens, UniProt P33261); assay: Cytochrome panel assay with activity outcomes. Panel member name: p450-cyp2c19 Compounds with AC50 equal or less than 10 uM are considered active; type: functional
Cytochrome P450 2C19, sequence (P33261 whole entry): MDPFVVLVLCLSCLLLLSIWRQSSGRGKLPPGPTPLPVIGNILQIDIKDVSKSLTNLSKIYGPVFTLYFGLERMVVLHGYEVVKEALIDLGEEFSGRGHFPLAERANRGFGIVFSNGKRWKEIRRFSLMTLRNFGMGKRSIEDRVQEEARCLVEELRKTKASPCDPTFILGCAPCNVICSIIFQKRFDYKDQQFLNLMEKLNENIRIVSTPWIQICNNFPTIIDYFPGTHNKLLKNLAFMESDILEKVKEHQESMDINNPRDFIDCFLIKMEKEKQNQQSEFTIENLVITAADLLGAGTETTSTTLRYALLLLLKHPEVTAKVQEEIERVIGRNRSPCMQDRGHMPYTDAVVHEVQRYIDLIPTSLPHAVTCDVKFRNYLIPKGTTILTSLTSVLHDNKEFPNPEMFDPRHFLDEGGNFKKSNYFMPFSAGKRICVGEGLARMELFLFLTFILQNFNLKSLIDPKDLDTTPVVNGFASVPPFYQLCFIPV

T3 sequence (P11940 whole entry, the tested form may be a part): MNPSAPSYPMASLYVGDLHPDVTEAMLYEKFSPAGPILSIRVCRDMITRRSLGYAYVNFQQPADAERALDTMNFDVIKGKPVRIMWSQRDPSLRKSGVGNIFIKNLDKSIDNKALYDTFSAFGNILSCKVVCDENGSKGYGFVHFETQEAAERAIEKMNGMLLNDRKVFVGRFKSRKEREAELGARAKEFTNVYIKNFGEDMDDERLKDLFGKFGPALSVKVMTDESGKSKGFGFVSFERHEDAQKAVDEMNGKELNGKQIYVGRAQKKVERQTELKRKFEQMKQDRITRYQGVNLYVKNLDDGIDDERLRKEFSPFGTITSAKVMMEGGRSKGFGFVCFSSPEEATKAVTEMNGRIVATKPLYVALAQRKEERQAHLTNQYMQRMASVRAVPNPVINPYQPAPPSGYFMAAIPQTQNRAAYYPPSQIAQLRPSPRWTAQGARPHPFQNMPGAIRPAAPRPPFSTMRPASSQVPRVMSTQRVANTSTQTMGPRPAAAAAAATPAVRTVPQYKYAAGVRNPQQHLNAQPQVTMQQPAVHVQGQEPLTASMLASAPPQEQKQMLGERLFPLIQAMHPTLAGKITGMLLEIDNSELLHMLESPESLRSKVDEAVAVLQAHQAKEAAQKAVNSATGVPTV
Cytochrome P450 2D6, sequence (P10635 whole entry): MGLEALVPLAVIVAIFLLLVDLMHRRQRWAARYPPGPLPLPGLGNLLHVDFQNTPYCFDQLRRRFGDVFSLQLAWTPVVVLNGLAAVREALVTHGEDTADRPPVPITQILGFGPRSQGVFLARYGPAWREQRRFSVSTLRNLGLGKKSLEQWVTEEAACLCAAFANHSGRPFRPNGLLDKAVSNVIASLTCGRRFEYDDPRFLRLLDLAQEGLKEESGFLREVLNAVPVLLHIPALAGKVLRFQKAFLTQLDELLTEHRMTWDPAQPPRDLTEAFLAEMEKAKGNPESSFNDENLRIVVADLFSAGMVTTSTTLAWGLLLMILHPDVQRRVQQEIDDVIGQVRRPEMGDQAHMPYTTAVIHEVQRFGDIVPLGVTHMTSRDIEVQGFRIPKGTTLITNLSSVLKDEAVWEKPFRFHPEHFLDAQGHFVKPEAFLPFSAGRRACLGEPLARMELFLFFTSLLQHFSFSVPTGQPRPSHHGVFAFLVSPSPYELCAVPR
Paired box protein Pax-8, sequence (Q06710 whole entry): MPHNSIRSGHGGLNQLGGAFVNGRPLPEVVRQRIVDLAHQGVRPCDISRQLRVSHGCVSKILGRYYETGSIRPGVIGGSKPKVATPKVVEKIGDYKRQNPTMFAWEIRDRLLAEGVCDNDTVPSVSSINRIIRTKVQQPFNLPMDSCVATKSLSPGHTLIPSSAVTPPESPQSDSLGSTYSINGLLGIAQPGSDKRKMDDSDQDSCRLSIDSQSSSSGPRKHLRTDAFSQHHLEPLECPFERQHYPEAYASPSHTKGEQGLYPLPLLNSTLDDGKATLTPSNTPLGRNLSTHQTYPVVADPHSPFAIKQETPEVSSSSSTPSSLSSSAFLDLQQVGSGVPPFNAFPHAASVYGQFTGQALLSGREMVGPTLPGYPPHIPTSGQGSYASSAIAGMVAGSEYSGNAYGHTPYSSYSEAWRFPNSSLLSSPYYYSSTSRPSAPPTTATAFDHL
Cytochrome P450 2C9, sequence (P11712 whole entry): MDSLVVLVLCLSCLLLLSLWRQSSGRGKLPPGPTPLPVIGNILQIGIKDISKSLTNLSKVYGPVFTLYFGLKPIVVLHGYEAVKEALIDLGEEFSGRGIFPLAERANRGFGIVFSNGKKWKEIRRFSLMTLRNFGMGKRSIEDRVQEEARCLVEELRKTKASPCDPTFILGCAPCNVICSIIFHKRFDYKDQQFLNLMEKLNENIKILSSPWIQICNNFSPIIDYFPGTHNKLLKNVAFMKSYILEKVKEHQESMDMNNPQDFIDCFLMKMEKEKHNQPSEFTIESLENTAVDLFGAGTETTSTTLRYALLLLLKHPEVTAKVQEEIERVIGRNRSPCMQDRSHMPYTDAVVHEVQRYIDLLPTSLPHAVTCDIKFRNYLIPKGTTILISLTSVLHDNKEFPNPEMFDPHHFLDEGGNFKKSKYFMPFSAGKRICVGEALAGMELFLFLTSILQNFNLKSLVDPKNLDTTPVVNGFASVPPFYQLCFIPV

In the case of `[O-]c1ccccc1-[n+]1c(-c2ccccc2)cc(-c2ccccc2)cc1-c1ccccc1`, the EC50 [1] is reported as > 160 µM (inconclusive), the EC50 [2] is reported as > 120 µM (not active) and the EC50 [3] is reported as 11.7 µM (active). The EC50 [4] was > 120 µM (not active), the EC50 [5] was > 120 µM (not active) and the EC50 [6] was 14.2 µM (active). The EC50 [7] was 0.85 µM (active), the EC50 [8] was > 150 µM (inconclusive) and the EC50 [9] was 11.4 µM (active). For the same molecule, the AC50 [10] was 6.35 µM (active).

With `COc1ccc(C2C(C(=O)c3ccco3)=C(O)C(=O)N2c2nnc(C)s2)cc1OC` (stereo not drawn) the EC50 [11] was > 300 µM (not active), the EC50 [12] was 297 µM (active) and the IC50 [13] was > 66 µM (inactive). The IC50 [14] was 50.4 µM (inactive).

With `O=C(Cc1ccc(Cl)cc1)NC(=S)Nc1ccccc1O` the IC50 [13] was > 66 µM (inactive), the IC50 [14] was > 66 µM (inactive) and the EC50 [15] was 5.99 µM (active).

In the case of `Cn1c(CCN2CCN(c3ccccn3)CC2)nc2cc(NS(=O)(=O)c3ccc(Cl)cc3)ccc21`, the AC50 [16] is reported as 8.15 µM (active).

With `O=C(NC(=S)Nc1ccccc1)c1cncc(C#Cc2ccccc2)c1` the IC50 [13] was > 66 µM (inactive) and the IC50 [14] was > 66 µM (inactive).

For `Cc1cc(O)nc(SCC(=O)Nc2ccccc2C#N)c1C#N`, the IC50 [17] was 13.9 µM (active).

In the case of `CN(C)c1ncc2nc(-c3cccc(C#N)c3)c(=O)n(CCC#N)c2n1`, the AC50 [18] is reported as 39.8 µM (inconclusive) and the AC50 [19] is reported as “inconclusive”.

For `Fc1ccc(Nc2ncncc2-c2ccccc2C(F)(F)F)cc1`, the AC50 [18] was 39.8 µM (inconclusive) and the AC50 [20] was 20 µM (inconclusive).

For `O=C1c2ccccc2-c2cc3ccccc3cc21`, the IC50 [13] was > 66 µM (inactive) and the IC50 [14] was > 66 µM (inactive).

In the case of `Cn1nccc1C(=O)N/N=C/c1c(O)ccc2ccccc12`, the EC50 [3] is reported as 1.61 µM (active), the EC50 [21] is reported as 5.93 µM (active) and the EC50 [6] is reported as 7.69 µM (active). For the same molecule, the EC50 [22] was 38.7 µM (active), the EC50 [8] was 4.66 µM (active) and the EC50 [9] was 1.59 µM (active). For the same molecule, the AC50 [10] was 0.856 µM (active).

In the case of `C[C@@H]1CN([C@@H](C)CO)S(=O)(=O)c2ccc(C#Cc3ccc(F)cc3)cc2O[C@H]1CN(C)C(=O)NC1CCCCC1`, the AC50 [16] is reported as 7.93 µM (active).

In the case of `CC1=NNC(=O)C1CC(=O)N/N=C(\C)c1cccs1` (stereo not drawn), the IC50 [17] is reported as 3.56 µM (active).

With `N=C(N)Nc1ccc(Cl)cc1` the AC50 [23] was “inconclusive” and the AC50 [18] was 31.6 µM (inconclusive).
